Assay [1] deals with RIN 1048-36 cells. The assay can be described thus: Insulin secretion in vitro in RIN 1048-36 cells. To be noted: peptide 1×10−8 M, 5 mM glucose, 1 h; compared with GLP-1 and exendin-4. The class given is cell-based, rat.
Procedure: Thereafter, they were preincubated for 2 periods of 30 min each with glucose-free buffer (containing mM: 140 NaCl, 5 KCl, 1 NaPO4, 1 MgSO4, 2 CaCl, 20 HEPES buffer (pH 7.4), and 0.1% bovine serum albumin) in a 37° C. humidified incubator. […] After 1 h the medium was removed and stored at −80° C. prior to quantification of insulin levels by EIA (Crystal Chem, Chicago Ill.), and the cells were lysed with HCl (300 μl, 0.1 M, 20 min, RT) for measurement of total protein using the Bradford method (Bio-Rad, Richmond, Calif.) with bovine γ-globulin as a standard.
Assay [2] concerns PC12 cells. The assay can be described thus: Inhibition of GLP-1, exendin-4 and NGF induced neurite outgrowth in PC12 cells. To be noted: 48 h; PD98059 50 μM, LY294002 40 μM, H89 20 μM, or exendin (9-39) with exendin-4. The class given is cell-based, rat. As to the method:
NGF at 50 ng/ml and forskolin (PKA activator) (20 μM) were used as positive controls in these treatments.

The subject of assay [3] is Aβ1-40. The assay can be described thus: Aβ1-40 sandwich ELISA of PC12 conditioned media. It is filed as cell-based, rat. To be noted: PC12 cells, relative to control cells. (ELISA stands for enzyme-linked immunosorbent assay.)
For assay [4], the system named is PC12 cells. Description: Neurite outgrowth in PC12 cells. It is filed as cell-based, rat. To be noted: day 3. As for the experimental part:
Three dishes for each treatment condition were prepared. Treatments began 24 hours after seeding, once cells were well attached.
PC12 cells were grown on 60 mm dishes as above and cultured for four days. During this time neurite outgrowth was quantified daily. Five random fields of cells were evaluated per dish and the proportion of neurite-bearing cells was determined. Approximately 100 cells per field were scored for neurites equal to or greater in length than that of the cell body. A cell was only scored once, although it may have had more than one process per cell.

For assay [5], the system named is synaptophysin. The assay can be described thus: Synaptophysin expression in PC12 cells (Western blot). The class given is cell-based, rat. As to conditions: PC12 cell lysates. As to the method: The synaptophysin monoclonal antibody (Oncogene Research Products, San Diego Calif.), which stains neurosecretory vesicles of PC12 cells, was used. The membranes were blocked with 20 mM Tris, 500 mM NaCl pH 7.4, 1% (w/v) casein (BioRad, San Diego Calif.) at 37° C. for 1 hour. Primary antibody was diluted in block and incubated with the proteins overnight at 4° C. The membrane was vigorously washed with 20 mM Tris pH 7.4, 150 mM NaCl and 0.05% Tween-20 (TBST), three times for 15 minutes at room temperature. The peroxidase-linked secondary antibody in block was incubated with the membrane for 2 hours at room temperature. Peroxidase-linked anti-mouse IgM (Chemicon, Tenecula, Calif.) was used as the secondary antibody against synaptophysin. Excess antibody was washed off with three vigorous washes in TBST prior to incubation in ECL Plus (Amersham, Philadelphia, Pa.) for 5 minutes. The membrane was subsequently exposed to photographic film.
On the technique in general: Immunoblotting shows a protein as a band on a membrane.

Assay [6] relates to Aβ1-40. The assay can be described thus: Aβ1-40 in whole brain homogenates after i.c.v. infusion in control mice. The class given is in vivo, mouse. To be noted: 2 μg NGF i.c.v., 48 h, p<0.01. As for the experimental part: Lean db+/db+ control male mice (n=24) were anaesthetized with 50 mg/kg pentobarbitone and placed in a stereotaxic surgical frame with mouse adaptor (David Kopf Instruments, Tujunga, Calif.) using temporal bone cup holders. […] After 48 h all animals were sacrificed by cervical dislocation, the brains removed and rapidly frozen in liquid nitrogen. Brains were pulverized and stored at −80° C. prior to assaying for Aβ levels.
Equivalent volumes of conditioned media and whole brain homogenate were assayed for Aβ1-40 using a sandwich ELISA (Suzuki et. al., 1994). The monoclonal antibody BAN50 (raised against Aβ1-16) was used as the capture antibody for all species of Aβ (Aβ1-40 and Aβ1-42), and the monoclonal antibody BA27 was used to specifically detect Aβ1-40 levels. Levels of Aβ1-40 were expressed in pM concentrations for conditioned media samples and finol/g for the mouse brain homogenates, as deduced from the appropriate standard curve run in parallel with the assay.

Assay [7] deals with PC12 cells. Description: Bromodeoxyuridine incorporation in PC12 cells. As to conditions: day 1; GLP-1 33 μg/ml, NGF 50 ng/ml.
Procedure: Immunocytochemistry with an anti-BrdU antibody after labeling was used to identify cells that were actively replicating DNA at the time of labeling. […] 10 μM BrdU was added to the culture medium for 6 hours prior to fixing in 4% paraformaldehyde, to label cellular DNA. The remainder of the method was followed according to the proliferation kit (Roche, Indianapolis, Ind.). […] BrdU incorporation was quantitated on days 1, 2 and 3 of treatment. Three dishes for each treatment condition were counted and expressed as the percentage of labeled cells relative to the total number of cells.
Assay [8] relates to β-amyloid precursor protein (βAPP). Description: Western immunoblot of βAPP (cell lysates) and sAPP (conditioned media) in PC12 cells. To be noted: day 3, relative to untreated.
Assay [9] concerns fasted, diabetic Zucker rats. The assay can be described thus: Duration of in vivo insulinotropic action after intraperitoneal peptide. Also on record: species or system rat. To be noted: 0.4 nmol/kg i.p.
Procedure: The time-dependent duration of insulinotropic action was evaluated by quantifying plasma insulin and glucose levels in Zucker rats following intraperitoneal (i.p.) peptide administration. Specifically, after overnight fasting, diabetic male rats, approximately 400 g weight, were anesthetized with 50 mg/kg pentobarbital and a catheter was tied into their right femoral artery for blood collection. […] Blood, taken prior to peptide administration, at 30 and 60 min, and at 2, 4, 6 and 24 h, was drawn into heparinized tubes containing EDTA and aprotinin for insulin determination, and a separate sample was taken to measure glucose. Plasma was separated, removed and immediately frozen to −70° C. Thereafter insulin levels were quantified by using a rat insulin ELISA kit (Crystal Chem Inc., Chicago, Ill.) and plasma glucose was quantified by the glucose oxidase method.
Assay [10] concerns Zucker fatty (fa/fa) and Wistar rats. Description: Blood glucose and insulin after subcutaneous injection. The class given is in vivo, rat. As to conditions: 24 nmol/kg s.c.
Procedure: Six-month old male Zucker fa/fa rats (Harlan, Indianapolis, Ind.) and six-month old Wistar rats were used in this study. They were allowed ad libitum access to chow and water and were on a 12 h light, 12 h dark cycle (lights on 0700 h). The bedding for the Zucker rats was a paper based product, “Carefresh” (Absorption Co., Belingham, Wash.). The Zucker rats were fasted on wire, in the absence of bedding, overnight before the experiment. Wistar rats were fasted on their normal bedding. General anaesthesia was induced by an intraperitoneal injection of pentobarbital (50 mg/kg).

From patent US10941187B2 (The United States of America, as represented by the …, priority 2001, dated 2021) come the findings set out here.

Entries after “also recorded” stand apart in the source; their conditions may differ. Ends that are not written are not given here.

Regarding “peptide 8: GLP-1 with A to G substitution at position 8 and V to L at position 16 (SEQ ID NO:5) (HGEGTFTSDLSSYLEGQAAKEFIAWLVKGR)”, the “induction of insulin secretion” value in [1] is recorded as “retained the ability to induce insulin secretion; also recorded: substantially greater effect on insulin secretion than either GLP-1 or exendin-4”.

With `COc1cccc(-c2cc(=O)c3ccccc3o2)c1N` [PD98059], the “effect on GLP-1, exendin-4 or NGF induced neurite outgrowth” value (“effect” for short) in assay [2] was “reduced GLP-1 and exendin-4 induced neurite outgrowth”.

Take nerve growth factor [NGF]: in [3], the “Aβ1-40 levels in conditioned media” value was “significant increases in Aβ1-40 levels”. Moreover, the “increase in neurite projections from controls” value is given as 550% in assay [4] (NGF 10 ng/ml) and 720% in assay [4] (NGF 30 ng/ml). Moreover, the “maximal decrease in synaptophysin expression relative to control cells” value in assay [5] is reported as “approximately 70%”. Also, the synaptophysin expression entry in [5] (relative to untreated) is on record as “dramatically reduced the expression of the synaptophysin protein”. The “reduction of Aβ1-40 levels compared to vehicle” value in [6] stood at 40%. The “increased incorporation of BrdU relative to untreated” value in [7] is listed as 9%. Further, in assay [8], the “intracellular levels of βAPP (cell lysates)” value is “dramatic increases in intracellular levels of βAPP”.

With “peptide 9: GLP-1 with A/G, V/L, S/K, Y/Q, L/M substitutions at position 8, 16, 18, 19, 20 (SEQ ID NO: 6) (HGEGTFTSDLSKQMEGQAAKEFIAWLVKGR)”, the “induction of insulin secretion” value in [1] is reported as “retained the ability to induce insulin secretion; also recorded: restores activity”.

Take exendin (9-39): the “effect” value in [2] is given as “failed to initiate neurite extension”.

Consider “peptide 30: peptide 1 with neutral serine replaced by basic lysine in position 18 (SEQ ID NO:27) (HGEGTFTSDVSKYLEGQAAKEFIAWLVKGR)”, for which the “induction of insulin secretion” value in assay [1] is “loss of activity”.

On to `O=S(=O)(NCCNC/C=C/c1ccc(Br)cc1)c1cccc2cnccc12` [H89], for which, in assay [2], the “effect” value was “some inhibitory effects on GLP-1 and NGF-induced neurite outgrowth”.

With “peptide 36: exendin-4 with arginine in position 36 and position 30 modified from glutamic acid to alanine (SEQ ID NO:33) (HGEGTFTSDLSKQMEEEAVREFIAWLKNGR; not fully specified)”, the “induction of insulin secretion” value in assay [1] is “well tolerated”.

On to “peptide 15: truncation of exendin-4 including residues up to and including residue 43 (SEQ ID NO:12)”, for which the “induction of insulin secretion” value in assay [1] was “inducing effect that exceeded that of exendin-4 or GLP-1”.

On to `CC[C@H](C)[C@H](NC(=O)[C@H](Cc1ccccc1)NC(=O)[C@H](CCC(=O)O)NC(=O)[C@H](CCCCN)NC(=O)[C@H](C)NC(=O)[C@H](C)NC(=O)[C@H](CCC(N)=O)NC(=O)CNC(=O)[C@H](CCC(=O)O)NC(=O)[C@H](CC(C)C)NC(=O)[C@H](Cc1ccc(O)cc1)NC(=O)[C@H](CO)NC(=O)[C@H](CO)NC(=O)[C@@H](NC(=O)[C@H](CC(=O)O)NC(=O)[C@H](CO)NC(=O)[C@@H](NC(=O)[C@H](Cc1ccccc1)NC(=O)[C@@H](NC(=O)CNC(=O)[C@H](CCC(=O)O)NC(=O)CNC(=O)[C@@H](N)Cc1c[nH]cn1)[C@@H](C)O)[C@@H](C)O)C(C)C)C(=O)N[C@@H](C)C(=O)N[C@@H](Cc1c[nH]c2ccccc12)C(=O)N[C@@H](CC(C)C)C(=O)N[C@H](C(=O)N[C@@H](CCCCN)C(=O)NCC(=O)N[C@@H](CCCNC(=N)N)C(N)=O)C(C)C` [GLP-1 Gly^8], for which the “induction of insulin secretion” value in assay [1] was “induced insulin secretion slightly more than exendin-4”. Further, the “potency on plasma insulin versus equimolar standard” value in assay [9] was “more potent than equimolar GLP-1”. Further, in assay [10] (fasted Zucker fatty rats), the “hypoglycemia in Zucker rats” value was “drop in blood glucose into the hypoglycemic range”. The blood glucose result in assay [10] (fasted rats, monitored 8 h) is given as “rapidly lowered blood glucose”.
